In paper PMC11345844, “Non-Covalent Inhibitors of SARS-CoV-2 Papain-Like Protease (PLpro): In Vitro and In Vivo Antiviral Activity” (Journal of Medicinal Chemistry, 2024):
“Also recorded” adds a separate entry of the source. Like-named read-outs stand apart in the source and are kept apart here.

Experiments:
[1] = tested on: Vero E6 cells; conditions: cited from earlier work
[2] = tested on: A549-hACE2 cells; conditions: cited from earlier work
[3] = tested on: SARS-CoV-2; conditions: read-out: Reported cell-based antiviral potency EC50; cited from earlier work
[4] = Plasma exposure after 50 mg/kg i.p. in male C57BL/6 mice
[5] = tested on: PLpro; conditions: cited from earlier work; for IC50: read-out: Reported enzyme inhibition potency IC50, see referenced publications for assay details
[6] = i.v. hamster, 2 mg/kg
[7] = in vivo; conditions: male, C57BL/6, mouse, plasma
[8] = in vivo; conditions: male, hamster, plasma
[9] = in vitro; conditions: human
[10] = Human plasma stability
[11] = Plasma protein binding; conditions: human
[12] = tested on: SARS-CoV-2 (strain WA1); assay: Antiviral plaque assay in Vero cells with P-gp inhibitor CP-100356; type: cell-based
[13] = tested on: PLpro; conditions: compared with all inhibitors studied; cited from earlier work
[14] = tested on: SARS-CoV-2 (strain WA1); type: cell-based
[15] = Plasma PK of 32 (Figure S1)
[16] = in vivo; conditions: C57BL/6, mouse, plasma, ip, 25 mg/kg
[17] = Comparison of plasma PK of 10 and 42 (Figure S3); conditions: 25 mg/kg i.p. (Figure S3)
[18] = 64 25 mg/kg i.p., between 0.5 to 5 h after administration
[19] = tested on: COVID-19; conditions: human, in vivo, po; cited from earlier work
[20] = tested on: SARS-CoV-2; conditions: cited from earlier work

In the case of `Cc1ccc(NC2CNC2)cc1C(=O)N[C@H](C)c1cccc(-c2ccc(CN3CCCC3)s2)c1` [Compound 2], the “potency against viral infection” value [1] is listed as “low micromolar potency”, the “potency against viral infection” value [2] is listed as “low micromolar potency” and the EC50 [3] is listed as 1.2 ± 0.2 µM. The toxicity observation [4] was “overt toxicity”.
For `CC(=O)Nc1cccc(CNC(=O)C2CCN([C@H](C)c3cccc4ccccc34)CC2)c1` [Compound 3], the IC50 [5] is listed as 2.69 ± 0.34 µM.
In the case of `Nc1ccc2cc3ccc(N)cc3nc2c1` [Compound 6, proflavine], the IC50 [5] is given as 1.46 µM.
In the case of `COC(=O)/C=C/CNC(=O)CNC(=O)[C@H](CN)NC(=O)[C@H](CCc1nc2ccccc2s1)NC(C)=O` [Compound 8], the “Reported enzyme inhibition” value ([5]; at 100 μM) is listed as “almost complete inhibition”.
For `Cc1ccc(NC2CNC2)cc1C(=O)N[C@H](C)c1cccc(-c2ccc(CNC3CCCC3)s2)c1` [Compound 10], the plasma clobs (i.v. mouse, 2 mg/kg) was 111 ± 16 mL/min/kg, the bioavailability (i.v./s.c., mice and hamsters, minor species differences) was “good” and the plasma clobs [6] was 75 ± 5 mL/min/kg. For the same compound, the “potency against viral infection” value [1] was “low micromolar potency”, the “potency against viral infection” value [2] was “low micromolar potency” and the Cmax ([7]; iv, 2 mg/kg) was 734 ± 125 ng/mL. The Cmax ([7]; sc, 50 mg/kg) was 3190 ± 667 ng/mL, the Cmax ([8]; iv, 2 mg/kg) was 2920 ± 474 ng/mL and the Cmax ([8]; sc, 20 mg/kg) was 1220 ± 276 ng/mL. For the same compound, the CC50 [9] was 43 ± 1.8 µM, the half-life [10] was 60 h and the fraction unbound [11] was 0.033.
In the case of `Cc1ccc(NC2CNC2)cc1C(=O)N[C@H](C)c1cccc(-c2ccc(CN[C@H]3CC[C@@H](O)C3)s2)c1` [Compound 11], the “efficacy in inhibiting viral replication (plaque assay)” value [12] is listed as “least efficacious compound” and the off-rate [13] is listed as “lowest off-rate”.
`Cc1ccc(NC2CNC2)cc1C(=O)N[C@H](C)c1cccc(-c2cc(C)c(CNC3CCCC3)s2)c1` [Compound 16, (R)-5-(Azetidin-3-ylamino)-N-(1-(3-(5-((cyclopentylamino)methyl)-4-methylthiophen-2-yl)phenyl)ethyl)-2 Methylbenzamide] showed a CC50 [9] of 27 ± 1.4 µM.
With `Cc1ccc(NC2CNC2)cc1C(=O)N[C@H](C)c1cccc(-c2ccc(CNC(=O)C3CCCC3)s2)c1` [Compound 32, (R)-5-(Azetidin-3-ylamino)-N-(1-(3-(5-(cyclopentanecarboxamidomethyl)thiophen-2-yl)phenyl)ethyl)-2-methylbenzamide] the “efficacy in inhibiting viral replication (plaque assay)” value [12] was “almost complete loss of antiviral activity”, the “antiviral activity by RT-PCR of viral RNA” value [14] was “lack of activity” and the bioavailability administered i.p. ([15]; 25 mg/kg i.p. (Figure S1)) was “good bioavailability”. The oral bioavailability ([15]; p.o. 100 mg/kg in corn oil, gavage (Figure S1)) was “without oral bioavailability”.
In the case of `Cc1ccc(NC2CNC2)cc1C(=O)N[C@H](C)c1cccc(-c2ccc(CN[C@H]3CC[C@@H](C(=O)O)C3)s2)c1` [Compound 39, (1R,3S)-3-(((5-(3-((R)-1-(5-(Azetidin-3-ylamino)-2-methylbenzamido)ethyl)phenyl)thiophen-2-yl)methyl)amino)cyclopentane-1-carboxylic Acid], the Cmax [16] is reported as 7910 ng/mL and the half-life [16] is reported as 2 h.
In the case of `Cc1ccc(OC2CNC2)cc1C(=O)N[C@H](C)c1cccc(-c2ccc(CN3CCCC3)s2)c1` [Compound 42, (R)-5-(Azetidin-3-yloxy)-2-methyl-N-(1-(3-(5-(pyrrolidin-1-ylmethyl)thiophen-2-yl)phenyl)ethyl)benzamide], the “efficacy in inhibiting viral replication (plaque assay)” value [12] is reported as “relatively higher efficacy” and the “in vivo exposure compared to 10” value [17] is reported as “significantly lower exposure”.
`Cc1ccc(OC2CCNCC2)cc1C(=O)N[C@H](C)c1cccc(-c2ccc(CNC3CCCC3)s2)c1` [Compound 44, (R)-N-(1-(3-(5-((Cyclopentylamino)methyl)thiophen-2-yl)phenyl)ethyl)-2-methyl-5-(piperidin-4-yloxy)benzamide] showed a CC50 [9] of 22 ± 0.9 µM.
In the case of `Cc1ccc(OCCN)cc1C(=O)N[C@H](C)c1cccc(-c2ccc(CN3CCCC3)s2)c1` [Compound 48, (R)-5-(2-Aminoethoxy)-2-methyl-N-(1-(3-(5-(pyrrolidin-1-ylmethyl)thiophen-2-yl)phenyl)ethyl)benzamide], the “efficacy in inhibiting viral replication (plaque assay)” value [12] is reported as “low efficacy”.
In the case of `CC(=O)OC(C)OC(=O)N1CC(Nc2ccc(C)c(C(=O)N[C@H](C)c3cccc(-c4ccc(CNC(=O)C5CCCC5)s4)c3)c2)C1` (stereo partly drawn) [Compound 62, 1-Acetoxyethyl 3-((3-(((R)-1-(3-(5-(cyclopentanecarboxamidomethyl)thiophen-2-yl)phenyl)ethyl)carbamoyl)-4-methylphenyl)amino)azetidine-1-carboxylate], the “antiviral activity by RT-PCR of viral RNA” value [14] is reported as “not greatly improved”.
For `Cc1ccc(NC2CNC2)cc1C(=O)N[C@H](C)c1cccc(-c2ccc(CN[C@H]3CC[C@@H](C(=O)OC[C@H]4O[C@@H](n5ccc(NO)nc5=O)[C@H](O)[C@@H]4O)C3)s2)c1` [Compound 64, ((3S,4R,5R)-3,4-Dihydroxy-5-(4-(hydroxyamino)-2-oxopyrimidin-1(2H)-yl)tetrahydrofuran-2-yl)methyl (1R,3S)-3-(((5-(3-((R)-1-(5-(azetidin-3-ylamino)-2-methylbenzamido)ethyl)phenyl)thiophen-2-yl)methyl)amino)cyclopentane-1-carboxylate], the “detection of mutual prodrug in plasma” value [18] was “not detectable; also recorded: undetectable”.
For `CC(C)C(=O)OC[C@H]1O[C@@H](n2cc/c(=N\O)[nH]c2=O)[C@H](O)[C@@H]1O` [Compound 65, Molnupiravir], the “efficacy against hospitalization or death” value [19] is listed as “about 30%”.
In the case of `CC(C)(C)[C@H](NC(=O)C(F)(F)F)C(=O)N1C[C@H]2[C@@H]([C@H]1C(=O)N[C@H](C#N)C[C@@H]1CCNC1=O)C2(C)C` [nirmatrelvir], the “left-shift in the response caused by CP-100356” value [20] is listed as “ca. 100 fold”.
